This passage reports IC50 results from patent publication US12071425B2 (Genentech, Inc., priority 2018, dated 2024).

Molecules are shown by their SMILES. Where a name gives a salt, the structure may show the parent alone.

The target in this assay is kinase domain of IRE1 alpha (His-tagged kinase dead construct KR, AA G547-L977, D688N) (Homo sapiens (Human), UniProt O75460, D688N). Put plainly: IRE1α TR-FRET competition binding assay. The conditions noted are these: competition with Kinase Tracer 236, 0.1 μM; one hour at room temperature. As to the method:
To determine the affinity of compound binding to the kinase domain of IRE1 alpha, a Time Resolved Fluorescence Resonance Energy Transfer (TR-FRET) competition assay was used. A His-tagged IRE1 alpha kinase dead construct containing the kinase and RNase domains (KR, AA G547-L977, D688N) was expressed in Sf9 insect cells. The purified protein (final concentration 0.006 μM micromolar) was pre-incubated with anti-His Europium labeled antibody (Life Technologies PV5596, final concentration 0.002 μM micromolar) for one hour at 4° C. in 1X TR-FRET Assay Buffer (50 mM HEPES, pH 7.5.10 mM MgCl2, 0.083 mM Brij 35, 1 mM DTT, and 0.1% bovine gamma globulin) prior to addition to test compounds. A fluorescent labeled probe based on an ATP competitive inhibitor (Kinase Tracer 236, Life Technologies PV5592) is added to a final concentration of 0.1 μM (micromolar). Reactions were carried out for one hour at room temperature in a final volume of 20 μL (microliter) in 384 well white ProxiPlates (Perkin Elmer 6008289). Binding of the tracer to the IRE1 protein alpha was detected in an Envision instrument (PerkinElmer) equipped with a TRF laser option and a LANCE/Delfia Dual/Bias D400/D630 mirror (Ex 347 nm, 1st Em 665 nm, 2nd Em 615 nm).
Exemplary compounds in Table A1 were tested in the IRE1α binding assays.
(In general: TR-FRET usually uses a lanthanide donor and a delayed reading to cut background.)

Chain of kinase domain of IRE1 alpha (His-tagged kinase dead construct KR, AA G547-L977, D688N) (O75460 547-977 D688N): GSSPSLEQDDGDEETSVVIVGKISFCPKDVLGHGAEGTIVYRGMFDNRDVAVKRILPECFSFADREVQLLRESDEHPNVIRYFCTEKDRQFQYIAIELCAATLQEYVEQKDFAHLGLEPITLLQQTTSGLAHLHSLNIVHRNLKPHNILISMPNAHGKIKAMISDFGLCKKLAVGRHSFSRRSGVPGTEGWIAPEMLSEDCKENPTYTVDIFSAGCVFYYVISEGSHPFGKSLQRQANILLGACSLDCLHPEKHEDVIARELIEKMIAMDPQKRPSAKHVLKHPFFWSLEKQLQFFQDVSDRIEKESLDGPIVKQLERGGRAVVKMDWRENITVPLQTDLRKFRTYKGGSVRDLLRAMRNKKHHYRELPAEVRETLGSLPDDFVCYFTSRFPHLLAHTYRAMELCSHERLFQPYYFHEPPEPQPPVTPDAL

One may read the IC50 as the concentration that gives 50% inhibition. The molecule `CC(F)C1CNCC(Nc2nccc(-c3cccnc3Oc3cc(F)c(NS(=O)(=O)Cc4ccccc4)c(F)c3F)n2)C1` (single isomer, unassigned) [Compound 344, 1-Phenyl-N-(2,3,6-trifluoro-4-((3-(2-((5-(1-fluoroethyl)piperidin-3-yl)amino)pyrimidin-4-yl)pyridin-2-yl)oxy)phenyl)methanesulfonamide hydrochloride] gave an IC50 of 19 nM.

Consider `CC(F)C1CNCC(Nc2nccc(-c3cccnc3Oc3cc(F)c(NS(=O)(=O)Cc4ccccc4)c(F)c3F)n2)C1` (single isomer, unassigned) [Compound 345, 1-Phenyl-N-(2,3,6-trifluoro-4-((3-(2-((5-(1-fluoroethyl)piperidin-3-yl)amino)pyrimidin-4-yl)pyridin-2-yl)oxy)phenyl)methanesulfonamide hydrochloride], for which the IC50 stood at 0.17 nM. This IC50 lies about 110-fold lower than the previous one. For `CC(F)C1CNCC(Nc2nccc(-c3cccnc3Oc3cc(F)c(NS(=O)(=O)Cc4ccccc4)c(F)c3F)n2)C1` (single isomer, unassigned) [Compound 346, 1-Phenyl-N-(2,3,6-trifluoro-4-((3-(2-((5-(1-fluoroethyl)piperidin-3-yl)amino)pyrimidin-4-yl)pyridin-2-yl)oxy)phenyl)methanesulfonamide] the value was 72 nM; for `CC(F)C1CNCC(Nc2nccc(-c3cccnc3Oc3cc(F)c(NS(=O)(=O)Cc4ccccc4)c(F)c3F)n2)C1` (single isomer, unassigned) [Compound 347, 1-Phenyl-N-(2,3,6-trifluoro-4-((3-(2-((5-(1-fluoroethyl)piperidin-3-yl)amino)pyrimidin-4-yl)pyridin-2-yl)oxy)phenyl)methanesulfonamide], 49 nM; for `CC(F)C1CNCC(Nc2nccc(-c3cccnc3Oc3cc(F)c(NS(=O)(=O)Cc4ccccc4)c(F)c3F)n2)C1` (single isomer, unassigned) [Compound 348, 1-Phenyl-N-(2,3,6-trifluoro-4-((3-(2-((5-(1-fluoroethyl)piperidin-3-yl)amino)pyrimidin-4-yl)pyridin-2-yl)oxy)phenyl)methanesulfonamide], 0.2 nM. The molecule `C[C@@H](c1ccccc1)S(=O)(=O)Nc1c(F)cc(Oc2ncccc2-c2ccnc(N[C@@H]3CNC[C@@H](F)C3)n2)c(F)c1F` (single isomer, unassigned) [Compound 387, (*S)-1-Phenyl-N-(2,3,6-trifluoro-4-((3-(2-(((3S,5S)-5-fluoropiperidin-3-yl)amino)pyrimidin-4-yl)pyridin-2-yl)oxy)phenyl)ethane-1-sulfonamide] yielded an IC50 of 0.2 nM. That is a sub-nanomolar value. Take `C[C@H](c1ccccc1)S(=O)(=O)Nc1c(F)cc(Oc2ncccc2-c2ccnc(N[C@@H]3CNC[C@@H](F)C3)n2)c(F)c1F` (single isomer, unassigned) [Compound 388, (*R)-1-phenyl-N-(2,3,6-trifluoro-4-((3-(2-(((3S,5S)-5-fluoropiperidin-3-yl)amino)pyrimidin-4-yl)pyridin-2-yl)oxy)phenyl)ethane-1-sulfonamide]: the IC50 worked out at 0.8 nM. In turn, `O=S(=O)(Cc1ccc(F)cc1)Nc1c(F)cc(Oc2ncccc2-c2ccnc(N[C@@H]3CNCC(CF)C3)n2)c(F)c1F` (stereo in doubt) [Compound 316, 1-(4-Fluorophenyl)-N-(2,3,6-trifluoro-4-((3-(2-(((3S,5S)-5-(fluoromethyl)piperidin-3-yl)amino)pyrimidin-4-yl)pyridin-2-yl)oxy)phenyl)methanesulfonamide] showed an IC50 of 0.35 nM. For `Cc1cc(NS(=O)(=O)c2ccccc2Cl)ccc1Oc1ncccc1-c1ccnc(N[C@H]2CC[C@H](N)CC2)n1` [Compound 101, N-[4-[[3-[2-[(4-aminocyclohexyl)amino]pyrimidin-4-yl]-2-pyridyl]oxy]-3-methyl-phenyl]-2-chloro-benzenesulfonamide hydrochloride] the value was 13 nM. For `Cc1cc(NS(=O)(=O)c2ccccc2Cl)cc(F)c1Oc1ncccc1-c1ccnc(N[C@H]2CC[C@H](N)CC2)n1` [Compound 102, N-[4-[[3-[2-[(4-aminocyclohexyl)amino]pyrimidin-4-yl]-2-pyridyl]oxy]-3-fluoro-5-methyl-phenyl]-2-chloro-benzenesulfonamide hydrochloride] the value was 10 nM; for `Cc1ccc(C(=O)NS(=O)(=O)c2ccccc2Cl)cc1Oc1ncccc1-c1ccnc(N[C@H]2CCCNC2)n1` [Compound 103, (S)-N-((2-chlorophenyl)sulfonyl)-4-methyl-3-((3-(2-(piperidin-3-ylamino)pyrimidin-4-yl)pyridin-2-yl)oxy)benzamide], 30 nM. `N[C@H]1CC[C@H](Nc2nccc(-c3cccnc3Oc3c(F)cc(NS(=O)(=O)c4ccccc4Cl)cc3Cl)n2)CC1` [Compound 104, N-[4-[[3-[2-[(4-aminocyclohexyl)amino]pyrimidin-4-yl]-2-pyridyl]oxy]-3-chloro-5-fluoro-phenyl]-2-chloro-benzenesulfonamide hydrochloride] showed an IC50 of 5.9 nM. This IC50 is about 5.1-fold lower than that of the molecule before. For `O=S(=O)(CCC(F)(F)F)Nc1ccc(Oc2ncccc2-c2ccnc(N[C@H]3CCCNC3)n2)cc1F` [Compound 105, (S)-3,3,3-trifluoro-N-(2-fluoro-4-((3-(2-(piperidin-3-ylamino)pyrimidin-4-yl)pyridin-2-yl)oxy)phenyl)propane-1-sulfonamide hydrochloride] the value was 27 nM; for `O=S(=O)(Cc1ccccc1)Nc1ccc(Oc2ncccc2-c2ccnc(N[C@H]3CCCNC3)n2)cc1F` [Compound 106, (S)-N-(2-fluoro-4-((3-(2-(piperidin-3-ylamino)pyrimidin-4-yl)pyridin-2-yl)oxy)phenyl)-1-phenylmethanesulfonamide hydrochloride], 5.7 nM; for `O=S(=O)(Cc1ccccc1)Nc1cc(F)c(Oc2ncccc2-c2ccnc(N[C@H]3CCCNC3)n2)cc1F` [Compound 107, (S)-N-(2,5-difluoro-4-((3-(2-(piperidin-3-ylamino)pyrimidin-4-yl)pyridin-2-yl)oxy)phenyl)-1-phenylmethanesulfonamide hydrochloride], 5.2 nM. Consider `O=S(=O)(Cc1ccccc1)Nc1ccc(Oc2ncccc2-c2ccnc(N[C@H]3CCCNC3)n2)c(F)c1F` [Compound 108, (S)-N-(2,3-difluoro-4-((3-(2-(piperidin-3-ylamino)pyrimidin-4-yl)pyridin-2-yl)oxy)phenyl)-1-phenylmethanesulfonamide hydrochloride], for which the IC50 amounted to 3.4 nM. For `O=S(=O)(CCC(F)(F)F)Nc1cc(F)c(Oc2ncccc2-c2ccnc(N[C@H]3CCCNC3)n2)cc1F` [Compound 109, (S)-N-(2,5-difluoro-4-((3-(2-(piperidin-3-ylamino)pyrimidin-4-yl)pyridin-2-yl)oxy)phenyl)-3,3,3-trifluoropropane-1-sulfonamide hydrochloride], the IC50 came out at 26 nM.

As for `C[C@H]1CNC[C@@H](Nc2nccc(-c3cccnc3Oc3ccc(NS(=O)(=O)Cc4ccccc4)c(F)c3F)n2)C1` [Compound 111, N-(2,3-difluoro-4-((3-(2-(((3S,5R)-5-methylpiperidin-3-yl)amino)pyrimidin-4-yl)pyridin-2-yl)oxy)phenyl)-1-phenylmethanesulfonamide hydrochloride], the IC50 worked out at 4.4 nM. `O=S(=O)(Cc1ccccc1)Nc1ccc(Oc2ncccc2-c2ccnc(N[C@@H]3CNC[C@@H](F)C3)n2)c(F)c1F` [Compound 112, N-(2,3-difluoro-4-((3-(2-(((3S,5S)-5-fluoropiperidin-3-yl)amino)pyrimidin-4-yl)pyridin-2-yl)oxy)phenyl)-1-phenylmethanesulfonamide]: the IC50 is 4.6 nM.

In the case of `O=S(=O)(Cc1ccccc1)Nc1ccc(Oc2ncccc2-c2ccnc(N[C@H]3CCCNC3)n2)cc1C(F)(F)F` [Compound 113, (S)-1-phenyl-N-(4-((3-(2-(piperidin-3-ylamino)pyrimidin-4-yl)pyridin-2-yl)oxy)-2-(trifluoromethyl)phenyl)methanesulfonamide], the IC50 is 11 nM. For the molecule `Cc1cc(NS(=O)(=O)c2ccccc2Cl)cc(F)c1Oc1ncccc1-c1ccnc(N[C@H]2CCCNC2)n1` [Compound 114, (S)-2-chloro-N-(3-fluoro-5-methyl-4-((3-(2-(piperidin-3-ylamino)pyrimidin-4-yl)pyridin-2-yl)oxy)phenyl)benzenesulfonamide hydrochloride], the IC50 came to 7.3 nM. As for `CCCCS(=O)(=O)Nc1cc(C)c(Oc2ncccc2-c2ccnc(N[C@H]3CCCNC3)n2)c(F)c1` [Compound 115, (S)-N-(3-fluoro-5-methyl-4-((3-(2-(piperidin-3-ylamino)pyrimidin-4-yl)pyridin-2-yl)oxy)phenyl)butane-1-sulfonamide hydrochloride], the IC50 was 30 nM. For `Cc1cc(NS(=O)(=O)C2CCCC2)cc(F)c1Oc1ncccc1-c1ccnc(N[C@H]2CCCNC2)n1` [Compound 116, (S)-N-(3-fluoro-5-methyl-4-((3-(2-(piperidin-3-ylamino)pyrimidin-4-yl)pyridin-2-yl)oxy)phenyl)cyclopentanesulfonamide hydrochloride] the value was 23 nM.
